In the supplement of paper PMC10307832:

Columns and labels:
Experiment in all cases: relative viability (nuclei count vs DMSO), 5 days (fraction); higher = more cells survive
Palbociclib + Trametinib = compound: CC(=O)c1c(C)c2cnc(Nc3ccc(N4CCNCC4)cn3)nc2n(C2CCCC2)c1=O [Palbociclib] + CC(=O)Nc1cccc(-n2c(=O)n(C3CC3)c(=O)c3c(Nc4ccc(I)cc4F)n(C)c(=O)c(C)c32)c1 [Trametinib] (partner 0.02 µM)
Summary of the method: (§1)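 Lung cancer cell lines, seeded in 1536-well plates, were treated the following day by pin tool with a single drug or with five library-drug doses (not always all listed) in √10 steps on top of a fixed anchor-drug dose. Cells were fixed and nuclei stained in one step after 5 days, and nuclei were counted. Relative viability is the nuclei count for treated wells divided by that for vehicle wells, reported as medians of duplicate plates.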

Palbociclib + Luminespib = compound: CC(=O)c1c(C)c2cnc(Nc3ccc(N4CCNCC4)cn3)nc2n(C2CCCC2)c1=O [Palbociclib] + CCNC(=O)c1noc(-c2cc(C(C)C)c(O)cc2O)c1-c1ccc(CN2CCOCC2)cc1 [Luminespib] (partner 0.01 µM)
Summary of the method: as §1

Palbociclib + Phenformin = compound: CC(=O)c1c(C)c2cnc(Nc3ccc(N4CCNCC4)cn3)nc2n(C2CCCC2)c1=O [Palbociclib] + N=C(N)NC(=N)NCCc1ccccc1 [Phenformin] (partner 250 µM)
Summary of the method: as §1

Palbociclib + Navitoclax = compound: CC(=O)c1c(C)c2cnc(Nc3ccc(N4CCNCC4)cn3)nc2n(C2CCCC2)c1=O [Palbociclib] + CC1(C)CCC(c2ccc(Cl)cc2)=C(CN2CCN(c3ccc(C(=O)NS(=O)(=O)c4ccc(N[C@H](CCN5CCOCC5)CSc5ccccc5)c(S(=O)(=O)C(F)(F)F)c4)cc3)CC2)C1 [Navitoclax] (partner 0.5 µM)
Summary of the method: as §1

| Cell Line | relative viability (Palbociclib + Trametinib; first compound 0.01 µM) | relative viability (Palbociclib + Trametinib; first compound 0.03162 µM) | relative viability (Palbociclib + Trametinib; first compound 0.1 µM) | relative viability (Palbociclib + Trametinib; first compound 0.3162 µM) | relative viability (Palbociclib + Trametinib; first compound 1 µM) | relative viability (Palbociclib + Luminespib; first compound 0.01 µM) | relative viability (Palbociclib + Luminespib; first compound 0.03162 µM) | relative viability (Palbociclib + Luminespib; first compound 0.1 µM) | relative viability (Palbociclib + Luminespib; first compound 0.3162 µM) | relative viability (Palbociclib + Luminespib; first compound 1 µM) | relative viability (Palbociclib + Phenformin; first compound 0.01 µM) | relative viability (Palbociclib + Phenformin; first compound 0.03162 µM) | relative viability (Palbociclib + Phenformin; first compound 0.1 µM) | relative viability (Palbociclib + Phenformin; first compound 0.3162 µM) | relative viability (Palbociclib + Phenformin; first compound 1 µM) | relative viability (Palbociclib + Navitoclax; first compound 0.01 µM) | relative viability (Palbociclib + Navitoclax; first compound 0.03162 µM) | relative viability (Palbociclib + Navitoclax; first compound 0.1 µM) | relative viability (Palbociclib + Navitoclax; first compound 0.3162 µM) | relative viability (Palbociclib + Navitoclax; first compound 1 µM) |
| --- | --- | --- | --- | --- | --- | --- | --- | --- | --- | --- | --- | --- | --- | --- | --- | --- | --- | --- | --- | --- |
| NCI-H1650 | 0.623 | 0.575 | 0.39 | 0.58 | 0.411 | 0.178 | 0.211 | 0.186 | 0.186 | 0.172 | 0.45 | 0.251 | 0.289 | 0.348 | 0.233 | 1.41 | 1.07 | 0.948 | 1.03 | 0.673 |
| NCI-H2085 | 0.529 | 0.516 | 0.588 | 0.482 | 0.34 | 0.426 | 0.332 | 0.376 | 0.412 | 0.327 | 0.667 | 0.555 | 0.616 | 0.592 | 0.399 | 1.1 | 1.04 | 0.897 | 0.93 | 0.776 |
| LOU-NH91 | 0.798 | 0.662 | 0.581 | 0.612 | 0.62 | 0.341 | 0.322 | 0.271 | 0.348 | 0.324 | 0.832 | 0.563 | 0.503 | 0.504 | 0.472 | 0.721 | 0.491 | 0.457 | 0.505 | 0.462 |
| NCI-H1734 | 0.617 | 0.6 | 0.581 | 0.56 | 0.481 | 0.251 | 0.182 | 0.193 | 0.197 | 0.17 | 0.435 | 0.337 | 0.307 | 0.286 | 0.247 | 0.928 | 0.779 | 0.708 | 0.593 | 0.487 |
| NCI-H1792 | 0.501 | 0.376 | 0.323 | 0.338 | 0.213 | 0.558 | 0.498 | 0.288 | 0.327 | 0.371 | 0.389 | 0.237 | 0.209 | 0.193 | 0.1 | 0.583 | 0.537 | 0.592 | 0.461 | 0.321 |
| HARA | 0.654 | 0.545 | 0.763 | 0.627 | 0.338 | 0.65 |  | 0.447 | 0.514 | 0.28 | 0.509 |  | 0.309 | 0.258 | 0.203 | 1.15 | 1.11 | 0.997 | 0.91 | 0.662 |
| NCI-H2087 | 0.236 | 0.191 | 0.161 | 0.15 | 0.187 | 0.175 |  | 0.137 | 0.235 | 0.203 | 0.449 |  | 0.291 | 0.229 | 0.189 | 1.04 | 0.843 | 0.802 | 0.685 | 0.495 |
| COR-L 105 | 0.477 | 0.435 | 0.36 | 0.407 | 0.389 | 0.689 | 0.814 | 0.596 | 0.475 | 0.536 | 0.467 | 0.54 | 0.381 | 0.385 | 0.33 | 0.943 | 0.808 | 0.669 | 0.586 | 0.401 |
| CAL-12T | 0.437 | 0.316 | 0.207 | 0.204 | 0.166 | 0.367 | 0.318 | 0.463 | 0.277 | 0.206 | 0.603 | 0.475 | 0.429 | 0.421 | 0.324 | 1.23 | 1.01 | 0.896 | 0.848 | 0.767 |
| HCC-44 | 1.07 | 1.1 | 1.02 | 0.987 | 1.1 | 0.933 | 1.01 | 1.02 | 1.35 | 1.11 | 0.234 |  | 0.171 | 0.223 | 0.204 | 0.948 | 0.953 | 1.03 | 0.99 | 1.02 |
| SK-MES-1 | 0.562 | 0.463 | 0.469 | 0.432 | 0.313 | 0.755 | 0.462 | 0.587 | 0.42 | 0.376 | 0.661 | 0.573 | 0.455 | 0.376 | 0.18 | 1.36 | 1.22 | 0.821 | 0.745 | 0.477 |
| SW 1573 | 0.6 | 0.432 | 0.515 | 0.42 | 0.366 | 0.385 | 0.207 | 0.257 | 0.208 | 0.265 | 0.364 | 0.324 | 0.234 | 0.216 | 0.219 | 0.986 | 1 | 0.838 | 0.642 | 0.439 |
| NCI-H2023 | 0.655 | 0.408 | 0.477 | 0.464 | 0.326 | 0.723 | 0.532 | 0.515 | 0.551 | 0.343 | 0.405 | 0.381 | 0.321 | 0.319 | 0.218 | 1 | 0.897 | 0.897 | 0.77 | 0.48 |
| NCI-H1651 | 0.841 | 0.798 | 0.743 | 0.803 | 0.714 | 0.872 | 0.814 | 0.774 | 0.791 | 0.677 | 0.342 | 0.332 | 0.308 | 0.337 | 0.256 | 1.13 | 0.986 | 0.907 | 0.992 | 0.736 |
| EMC-BAC-2 | 0.815 | 0.797 | 0.718 | 0.694 | 0.512 | 1.19 | 1.15 | 0.952 | 0.979 | 0.848 | 0.537 | 0.394 | 0.401 | 0.374 | 0.342 | 1.16 | 1.07 | 1.06 | 0.953 | 0.731 |
| NCI-H1993 | 0.564 | 0.612 | 0.418 | 0.332 | 0.514 | 0.8 | 0.781 | 0.762 | 0.671 | 0.888 | 0.467 | 0.474 | 0.464 | 0.445 | 0.556 | 0.84 | 0.875 | 0.752 | 0.771 | 0.706 |
| UMC-11 | 0.762 | 0.602 | 0.421 | 0.406 | 0.258 | 1.04 | 0.819 | 0.69 | 0.452 | 0.285 | 0.303 | 0.278 | 0.292 | 0.292 | 0.24 | 0.326 | 0.326 | 0.23 | 0.257 | 0.223 |
| LXF-289 | 0.662 | 0.633 | 0.632 | 0.619 | 0.605 | 0.627 | 0.71 | 0.604 | 0.709 | 0.554 | 0.51 | 0.294 | 0.452 | 0.462 | 0.378 | 0.94 | 0.94 | 0.937 | 0.83 | 0.772 |
| NCI-H3122 | 0.212 | 0.207 | 0.232 | 0.192 | 0.158 | 0.081 | 0.0895 | 0.0794 | 0.0926 | 0.0834 | 0.353 | 0.323 | 0.279 | 0.282 | 0.167 | 0.941 | 0.982 | 0.921 | 0.757 | 0.618 |
| NCI-H23 | 0.447 | 0.295 | 0.42 | 0.39 | 0.289 | 0.216 | 0.214 | 0.219 | 0.196 | 0.236 | 0.795 |  | 0.704 | 0.781 | 0.506 | 1.13 |  | 0.79 | 0.789 | 0.572 |
| NCI-H460 | 0.0946 | 0.116 | 0.0577 | 0.185 | 0.0348 | 0.0282 | 0.0413 | 0.0309 | 0.0231 | 0.026 | 0.537 | 0.411 | 0.409 | 0.333 | 0.149 | 1.08 | 0.944 | 0.912 | 0.662 | 0.175 |
| LC-2-ad | 0.966 | 0.884 | 0.889 | 0.804 | 0.666 | 0.944 |  | 0.856 | 0.8 | 0.535 | 0.573 |  | 0.523 | 0.414 | 0.383 | 0.555 |  | 0.402 | 0.383 | 0.337 |
| HCC-827 | 0.545 | 0.52 | 0.449 | 0.476 | 0.399 | 0.398 | 0.539 | 0.582 | 0.609 | 0.532 | 0.41 | 0.285 | 0.319 | 0.384 | 0.289 | 1.03 | 1.01 | 0.99 | 0.953 | 0.769 |
